Key:
[1] = target: T1, full-length beta-Catenin (Uniprot ID P35222) (Homo sapiens, UniProt P35222); test: Fluorescence polarization IC50 (beta-catenin / 5FAM-TCF4 10-53 competition); format: binding; settings: fluorescence polarization; read-out: beta-Catenin FP IC50
T1 construct: 10 nM full-length beta-Catenin (Uniprot ID P35222)
T1 sequence (P35222 1-781): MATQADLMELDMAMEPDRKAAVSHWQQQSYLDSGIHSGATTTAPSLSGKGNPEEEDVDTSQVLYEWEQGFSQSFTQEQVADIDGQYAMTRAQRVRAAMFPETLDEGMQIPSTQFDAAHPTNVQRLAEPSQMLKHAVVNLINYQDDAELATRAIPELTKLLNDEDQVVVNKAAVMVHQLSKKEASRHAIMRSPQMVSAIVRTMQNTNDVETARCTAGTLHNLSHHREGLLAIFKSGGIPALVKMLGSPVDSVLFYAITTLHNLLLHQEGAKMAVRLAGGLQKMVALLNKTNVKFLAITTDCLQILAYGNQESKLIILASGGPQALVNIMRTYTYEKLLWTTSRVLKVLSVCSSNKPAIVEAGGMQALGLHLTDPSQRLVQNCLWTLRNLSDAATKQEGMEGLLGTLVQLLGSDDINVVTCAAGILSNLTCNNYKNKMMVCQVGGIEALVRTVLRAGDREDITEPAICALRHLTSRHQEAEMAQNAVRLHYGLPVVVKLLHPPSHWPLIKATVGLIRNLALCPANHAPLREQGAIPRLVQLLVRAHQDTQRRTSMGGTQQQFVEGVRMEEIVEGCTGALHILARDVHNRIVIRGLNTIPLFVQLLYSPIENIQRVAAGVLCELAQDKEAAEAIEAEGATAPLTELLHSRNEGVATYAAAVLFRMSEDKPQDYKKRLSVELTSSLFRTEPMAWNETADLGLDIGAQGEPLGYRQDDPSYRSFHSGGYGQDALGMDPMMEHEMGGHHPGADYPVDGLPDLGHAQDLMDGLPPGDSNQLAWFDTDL

[2] = target: T2, beta-catenin/TCF4 engagement (Homo sapiens, UniProt P35222); test: Nano-BRET target engagement assay (B-cat-Halo & TCF4-Luc in HEK293 cells); format: cell-based; settings: absolute IC50; read-out: NanoBRET Abs IC50
T2 construct: expressed in transfected cells; host or cells: HEK293
T2 sequence (P35222 1-781): T1 sequence (P35222 1-781)

Structure (SMILES) | IC50 [1] [nM] | IC50 [2] [µM]
CC(=O)N1CCC[C@]12CC=CCCCC1(CCCC=CCCCOC(=O)N3CC[C@@](C(=O)N[C@@H](Cc4ccsc4)C(=O)N[C@@H](Cc4csc5ccccc45)C(=O)N[C@@H](CCC(N)=O)C(N)=O)(C3)NC(=O)[C@H](CC(C)C)NC(=O)[C@H](Cc3ccccc3)NC(=O)[C@H](C)NC(=O)[C@H](C)NC(=O)[C@H](CC(=O)O)NC(=O)[C@H](CC(=O)O)NC1=O)NC(=O)[C@H](CO)NC(=O)[C@H](CC(=O)O)NC2=O (stereo partly drawn) [I-1513, Ac-PL3-Asp-Ser-B5-Asp-Asp-Ala-Ala-Phe-Leu-PyrS2-3Thi-BztA-Gln-NH2] | 21 | > 20
CC(=O)N1CCC[C@]12CC=CCCCC1(CCCC=CCCCOC(=O)N3CC[C@@](C(=O)N[C@@H](Cc4ccsc4)C(=O)N[C@@H](Cc4csc5ccccc45)C(=O)N[C@@H](CCC(N)=O)C(N)=O)(C3)NC(=O)[C@H](CC(C)C)NC(=O)[C@H](Cc3ccccc3)NC(=O)[C@H](C)NC(=O)[C@H](C)NC(=O)[C@H](CC(=O)O)NC(=O)[C@H](CC(=O)O)NC1=O)NC(=O)[C@H]([C@@H](C)O)NC(=O)[C@H](CC(=O)O)NC2=O (stereo partly drawn) [I-1515, Ac-PL3-Asp-Thr-B5-Asp-Asp-Ala-Ala-Phe-Leu-PyrS2-3Thi-BztA-Gln-NH2] | 24 | > 20
CC(=O)N1CCC[C@]12CC=CCCCC1(CCCC=CCCCOC(=O)N3CC[C@@](C(=O)N[C@@H](Cc4ccsc4)C(=O)N[C@@H](Cc4csc5ccccc45)C(=O)N[C@@H](CCO)C(N)=O)(C3)NC(=O)[C@H](CC(C)C)NC(=O)[C@H](Cc3ccccc3)NC(=O)[C@H](C)NC(=O)[C@H](C)NC(=O)[C@H](CC(=O)O)NC(=O)[C@H](CC(=O)O)NC1=O)NC(=O)[C@H]([C@@H](C)O)NC(=O)[C@H](CC(=O)O)NC2=O (stereo partly drawn) [I-1516, Ac-PL3-Asp-Thr-B5-Asp-Asp-Ala-Ala-Phe-Leu-PyrS2-3Thi-BztA-Hse-NH2] | 30 | > 20
CC(=O)N1CCC[C@]12CC=CCCCC1(CCCC=CCCCOC(=O)N3CC[C@@](C(=O)N[C@@H](Cc4ccsc4)C(=O)N[C@@H](Cc4csc5ccccc45)C(=O)N[C@@H](CCC(N)=O)C(N)=O)(C3)NC(=O)[C@H](CC(C)C)NC(=O)[C@H](Cc3ccccc3)NC(=O)[C@H](C)NC(=O)[C@H](C)NC(=O)[C@H](CC(=O)O)NC(=O)[C@H](CC(=O)O)NC1=O)NC(=O)[C@H](CC(N)=O)NC(=O)[C@H](CC(=O)O)NC2=O (stereo partly drawn) [I-1517, Ac-PL3-Asp-Asn-B5-Asp-Asp-Ala-Ala-Phe-Leu-PyrS2-3Thi-BztA-Gln-NH2] | 32 | > 20
CCCC[C@@H]1NC(=O)[C@H](CC(=O)O)NC(=O)[C@]2(CC=CCCCC3(CCCC=CCCCCCC[C@@](C)(C(=O)N[C@@H](Cc4ccccc4)C(=O)N[C@@H](Cc4csc5ccccc45)C(=O)N[C@@H](CCC(N)=O)C(N)=O)NC(=O)[C@H](CC(C)C)NC(=O)[C@H](Cc4ccccc4)NC(=O)[C@H](C)NC(=O)[C@H](C)NC(=O)[C@H](CCC(=O)O)NC(=O)[C@H](CC(=O)O)NC3=O)NC1=O)CCCN2C(C)=O (stereo partly drawn) [I-1523, Ac-PL3-Asp-nLeu-B5-Asp-Glu-Ala-Ala-Phe-Leu-S8-Phe-BztA-Gln-NH2] | 29 | 8
CCCC[C@@H]1NC(=O)[C@H](CC(=O)O)NC(=O)[C@]2(CC=CCCCC3(CCCC=CCCCCCC[C@@](C)(C(=O)N[C@@H](Cc4ccccc4)C(=O)N[C@@H](Cc4csc5ccccc45)C(=O)N[C@@H](CCC(N)=O)C(N)=O)NC(=O)[C@H](CCO)NC(=O)[C@H](Cc4ccccc4)NC(=O)[C@H](C)NC(=O)[C@H](C)NC(=O)[C@H](CCC(=O)O)NC(=O)[C@H](CC(=O)O)NC3=O)NC1=O)CCCN2C(C)=O (stereo partly drawn) [I-1524, Ac-PL3-Asp-nLeu-B5-Asp-Glu-Ala-Ala-Phe-Hse-S8-Phe-BztA-Gln-NH2] | 17 | 8.1
CCCC[C@@H]1NC(=O)[C@H](CC(=O)O)NC(=O)[C@]2(CC=CCCCC3(CCCC=CCCCCCC[C@@](C)(C(=O)N[C@@H](Cc4ccccc4)C(=O)N[C@@H](Cc4csc5ccccc45)C(=O)N[C@@H](CCC(N)=O)C(N)=O)NC(=O)[C@H](CCO)NC(=O)[C@H](Cc4ccccc4)NC(=O)[C@H](C)NC(=O)[C@H](C)NC(=O)[C@H](CCC(=O)O)NC(=O)[C@H](CC(=O)O)NC3=O)NC1=O)CCCN2C(C)=O (stereo partly drawn) [I-1525, Ac-PL3-Asp-nLeu-B5-Asp-Glu-Ala-Ala-Phe-Hse-S8-Phe-BztA-Gln-NH2] | 22 | 10.8
CC(=O)N1CCC[C@]12CC=CCCCC1(CCCC=CCCCCCC[C@@](C)(C(=O)N[C@@H](Cc3ccccc3)C(=O)N[C@@H](Cc3csc4ccccc34)C(=O)N[C@@H](CCC(N)=O)C(N)=O)NC(=O)[C@H](CCC(N)=O)NC(=O)[C@H](Cc3ccccc3)NC(=O)[C@H](C)NC(=O)[C@H](C)NC(=O)[C@H](CCC(=O)O)NC(=O)[C@H](CC(=O)O)NC1=O)NC(=O)[C@H](CO)NC(=O)[C@H](CC(=O)O)NC2=O (stereo partly drawn) [I-1526, Ac-PL3-Asp-Ser-B5-Asp-Glu-Ala-Ala-Phe-Gln-S8-Phe-BztA-Gln-NH2] | 84 | > 20
CC(=O)N1CCC[C@]12CC=CCCCC1(CCCC=CCCCCCC[C@@](C)(C(=O)N[C@@H](Cc3ccccc3)C(=O)N[C@@H](Cc3csc4ccccc34)C(=O)N[C@@H](CCC(N)=O)C(N)=O)NC(=O)[C@H](CCC(N)=O)NC(=O)[C@H](Cc3ccccc3)NC(=O)[C@H](C)NC(=O)[C@H](C)NC(=O)[C@H](CCC(=O)O)NC(=O)[C@H](CC(=O)O)NC1=O)NC(=O)[C@H](CO)NC(=O)[C@H](CC(=O)O)NC2=O (stereo partly drawn) [I-1527, Ac-PL3-Asp-Ser-B5-Asp-Glu-Ala-Ala-Phe-Gln-S8-Phe-BztA-Gln-NH2] | 36 | 30.3

Stronger by IC50 [1], values ahead:

IC50 [1] [nM] | IC50 [2] [µM] | Structure (SMILES)
12 | > 20 | CC(=O)N1CCC[C@]12CC=CCCCC1(CCCC=CCCCOC(=O)N3CC[C@@](C(=O)N[C@@H](Cc4ccsc4)C(=O)N[C@@H](Cc4csc5ccccc45)C(=O)N[C@@H](CCO)C(N)=O)(C3)NC(=O)[C@H](CC(C)C)NC(=O)[C@H](Cc3ccccc3)NC(=O)[C@H](C)NC(=O)[C@H](C)NC(=O)[C@H](CC(=O)O)NC(=O)[C@H](CC(=O)O)NC1=O)NC(=O)[C@H](Cc1ccc(O)cc1)NC(=O)[C@H](CC(=O)O)NC2=O (stereo partly drawn) [I-1512, Ac-PL3-Asp-Tyr-B5-Asp-Asp-Ala-Ala-Phe-Leu-PyrS2-3Thi-BztA-Hse-NH2]
10 | 12.8 | CC(=O)N1CCC[C@]12CC=CCCCC1(CCCC=CCCCOC(=O)N3CC[C@@](C(=O)N[C@@H](Cc4ccsc4)C(=O)N[C@@H](Cc4csc5ccccc45)C(=O)N[C@@H](CCC(N)=O)C(N)=O)(C3)NC(=O)[C@H](CC(C)C)NC(=O)[C@H](Cc3ccccc3)NC(=O)[C@H](C)NC(=O)[C@H](C)NC(=O)[C@H](CC(=O)O)NC(=O)[C@H](CC(=O)O)NC1=O)NC(=O)[C@H](CC1CCCCC1)NC(=O)[C@H](CC(=O)O)NC2=O (stereo partly drawn) [I-1519, Ac-PL3-Asp-Cha-B5-Asp-Asp-Ala-Ala-Phe-Leu-PyrS2-3Thi-BztA-Gln-NH2]
11 | 17.4 | CC(=O)N1CCC[C@]12CC=CCCCC1(CCCC=CCCCOC(=O)N3CC[C@@](C(=O)N[C@@H](Cc4ccsc4)C(=O)N[C@@H](Cc4csc5ccccc45)C(=O)N[C@@H](CCO)C(N)=O)(C3)NC(=O)[C@H](CC(C)C)NC(=O)[C@H](Cc3ccccc3)NC(=O)[C@H](C)NC(=O)[C@H](C)NC(=O)[C@H](CC(=O)O)NC(=O)[C@H](CC(=O)O)NC1=O)NC(=O)[C@H](CC1CCCCC1)NC(=O)[C@H](CC(=O)O)NC2=O (stereo partly drawn) [I-1520, Ac-PL3-Asp-Cha-B5-Asp-Asp-Ala-Ala-Phe-Leu-PyrS2-3Thi-BztA-Hse-NH2]
16 | 6 | CCCC[C@@H]1NC(=O)[C@H](CC(=O)O)NC(=O)[C@]2(CC=CCCCC3(CCCC=CCCCCCC[C@@](C)(C(=O)N[C@@H](Cc4ccccc4)C(=O)N[C@@H](Cc4csc5ccccc45)C(=O)N[C@@H](CCC(N)=O)C(N)=O)NC(=O)[C@H](CCC(N)=O)NC(=O)[C@H](Cc4ccccc4)NC(=O)[C@H](C)NC(=O)[C@H](C)NC(=O)[C@H](CCC(=O)O)NC(=O)[C@H](CC(=O)O)NC3=O)NC1=O)CCCN2C(C)=O (stereo partly drawn) [I-1521, Ac-PL3-Asp-nLeu-B5-Asp-Glu-Ala-Ala-Phe-Gln-S8-Phe-BztA-Gln-NH2]
6 | 5.8 | CCCC[C@@H]1NC(=O)[C@H](CC(=O)O)NC(=O)[C@]2(CC=CCCCC3(CCCC=CCCCCCC[C@@](C)(C(=O)N[C@@H](Cc4ccccc4)C(=O)N[C@@H](Cc4csc5ccccc45)C(=O)N[C@@H](CCC(N)=O)C(N)=O)NC(=O)[C@H](CCC(N)=O)NC(=O)[C@H](Cc4ccccc4)NC(=O)[C@H](C)NC(=O)[C@H](C)NC(=O)[C@H](CCC(=O)O)NC(=O)[C@H](CC(=O)O)NC3=O)NC1=O)CCCN2C(C)=O (stereo partly drawn) [I-1522, Ac-PL3-Asp-nLeu-B5-Asp-Glu-Ala-Ala-Phe-Gln-S8-Phe-BztA-Gln-NH2]
